In US11453647B2, “Benzimidazole derivatives as adenosine receptor antagonists” (Merck Patent GmbH, priority 2017, dated 2022) one finds IC50 data, which are given here for 19 molecules.

In general, IC50 refers to the concentration needed to halve the response being measured.

Type in all cases: cell-based
One test addresses T1, human A3 receptor (Homo sapiens, UniProt P0DMS8).
T1 construct: expressed in transfected cells; host or cells: CHO
T1 sequence (P0DMS8 1-318): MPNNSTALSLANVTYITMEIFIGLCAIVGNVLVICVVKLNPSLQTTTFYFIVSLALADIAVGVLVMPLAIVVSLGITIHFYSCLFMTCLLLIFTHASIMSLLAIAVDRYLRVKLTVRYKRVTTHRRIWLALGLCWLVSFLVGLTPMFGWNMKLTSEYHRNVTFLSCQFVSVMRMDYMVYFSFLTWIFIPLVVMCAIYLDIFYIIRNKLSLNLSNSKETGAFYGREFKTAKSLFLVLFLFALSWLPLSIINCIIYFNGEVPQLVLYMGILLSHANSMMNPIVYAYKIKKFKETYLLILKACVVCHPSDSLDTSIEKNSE
Kind of test: functional cAMP (HTRF) assay, recombinant CHO cells expressing human A3 receptor, forskolin, agonist IB-MECA. The method, boiled down: (§1)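 Recombinant CHO lines carrying either receptor receive forskolin, compound and the matching agonist, CPA or IB-MECA. After 30 min, HTRF reagents are added and cAMP is quantified. Values are normalized to inhibitor and neutral DMSO controls, then fitted.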

The next test addresses T2, human A1 receptor (Homo sapiens, UniProt P30542).
T2 construct: expressed in transfected cells; host or cells: CHO
T2 sequence (P30542 1-326): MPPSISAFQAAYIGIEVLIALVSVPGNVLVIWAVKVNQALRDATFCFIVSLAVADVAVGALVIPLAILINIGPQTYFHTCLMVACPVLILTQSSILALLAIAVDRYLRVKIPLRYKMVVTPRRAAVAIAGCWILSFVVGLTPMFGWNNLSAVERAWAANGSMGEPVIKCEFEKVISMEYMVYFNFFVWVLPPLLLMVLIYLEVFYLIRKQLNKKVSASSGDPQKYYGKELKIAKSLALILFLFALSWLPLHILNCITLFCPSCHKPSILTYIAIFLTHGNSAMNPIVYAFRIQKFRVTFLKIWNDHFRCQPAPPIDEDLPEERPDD
Kind of test: functional cAMP (HTRF) assay, recombinant CHO cells expressing human A1 receptor, forskolin, agonist CPA. A digest of the protocol: as §1
(In general: TR-FRET usually uses a lanthanide donor and a delayed reading to cut background.)

The target in the next test is T3, A2B receptors (Homo sapiens, UniProt P29275).
T3 sequence (P29275 1-332): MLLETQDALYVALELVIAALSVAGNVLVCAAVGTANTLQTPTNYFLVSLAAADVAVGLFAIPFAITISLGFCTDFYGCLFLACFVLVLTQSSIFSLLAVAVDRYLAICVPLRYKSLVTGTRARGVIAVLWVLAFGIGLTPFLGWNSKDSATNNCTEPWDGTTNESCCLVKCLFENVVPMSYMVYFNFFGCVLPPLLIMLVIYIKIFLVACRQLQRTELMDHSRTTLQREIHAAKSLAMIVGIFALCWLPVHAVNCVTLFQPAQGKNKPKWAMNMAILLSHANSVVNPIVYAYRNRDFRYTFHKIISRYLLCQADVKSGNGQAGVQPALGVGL
The test is described as follows: functional cAMP (HTRF) assay, recombinant HEK293 cells expressing human A2B receptor, agonist NECA. Set-up: expressed in transfected cells; host or cells: HEK293.

The target in another test is T4, human A2A receptor (Homo sapiens, UniProt P29274).
T4 construct: expressed in transfected cells; host or cells: HEK293
T4 sequence (P29274 whole entry): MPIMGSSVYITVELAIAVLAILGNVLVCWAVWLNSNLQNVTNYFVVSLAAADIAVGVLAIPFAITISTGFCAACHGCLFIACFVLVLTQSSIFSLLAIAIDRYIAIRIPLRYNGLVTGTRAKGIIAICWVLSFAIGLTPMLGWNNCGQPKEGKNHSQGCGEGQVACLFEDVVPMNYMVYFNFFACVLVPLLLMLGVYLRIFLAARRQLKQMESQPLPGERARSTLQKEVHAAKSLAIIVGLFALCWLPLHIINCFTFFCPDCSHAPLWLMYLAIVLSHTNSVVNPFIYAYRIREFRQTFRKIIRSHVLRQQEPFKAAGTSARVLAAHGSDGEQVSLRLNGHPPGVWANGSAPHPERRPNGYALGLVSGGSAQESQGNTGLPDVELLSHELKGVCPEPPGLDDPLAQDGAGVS
Kind of test: functional cAMP (HTRF) assay, recombinant HEK293 cells expressing human A2A receptor, agonist NECA.

Turning to `COc1ccc(-c2ccc(F)cc2)c2nc(NC(=O)N3CCC(C)(O)CC3)[nH]c12` [compound 144, N-[4-(4-fluorophenyl)-7-methoxy-1H-1,3-benzodiazol-2-yl]-4-hydroxy-4-methylpiperidine-1-carboxamide], the IC50 at human A3 receptor is greater than 1000 nM; at human A1 receptor it was less than 1000 nM; at A2B receptors, less than 1000 nM; at human A2A receptor, less than 10 nM.

On to `COc1ccc(-c2cnn(C3CCN(C(=O)OC(C)(C)C)CC3)c2)c2[nH]c(NC(=O)N3CCC(C)(O)CC3)nc12` [compound 145, tert-butyl 4-(4-{2-[(4-hydroxy-4-methylpiperidine-1-carbonyl)amino]-4-methoxy-1H-1,3-benzodiazol-7-yl}-1H-pyrazol-1-yl)piperidine-1-carboxylate], for which the half-inhibitory concentration (IC50) was greater than 1000 nM at human A3 receptor, greater than 1000 nM on human A1 receptor, greater than 1000 nM at A2B receptors and less than 10 nM at human A2A receptor.

Regarding `COc1ccc(C2CCOCC2)c2nc(NC(=O)N3CC[C@@]4(CCOC4)C3)[nH]c12` [compound 150, (5R)-N-[7-methoxy-4-(oxan-4-yl)-1H-1,3-benzodiazol-2-yl]-2-oxa-7-azaspiro[4.4]nonane-7-carboxamide], the IC50 at human A3 receptor is greater than 1000 nM; on human A1 receptor, greater than 1000 nM; at A2B receptors, greater than 1000 nM; on human A2A receptor, less than 10 nM.

Regarding `COc1ccc(-c2cnn(CCC(C)C)c2)c2nc(NC(=O)N3CCC(C)(O)CC3)[nH]c12` [compound 151, 4-hydroxy-N-{7-methoxy-4-[1-(3-methylbutyl)-1H-pyrazol-4-yl]-1H-1,3-benzodiazol-2-yl}-4-methylpiperidine-1-carboxamide], the IC50 was greater than 1000 nM on human A3 receptor, less than 1000 nM on human A1 receptor, greater than 1000 nM at A2B receptors and less than 10 nM on human A2A receptor.

Regarding `COc1ccc(-c2cnn(C)c2)c2nc(NC(=O)c3ccc(CN4CCOCC4)cc3)[nH]c12` [compound 152, N-[7-methoxy-4-(1-methyl-1H-pyrazol-4-yl)-1H-1,3-benzodiazol-2-yl]-4-[(morpholin-4-yl)methyl]benzamide], the IC50 was less than 1000 nM on human A3 receptor, greater than 1000 nM on human A1 receptor, less than 1000 nM on A2B receptors and less than 100 nM on human A2A receptor.

Take `COc1ccc(C2CCOCC2)c2nc(NC(=O)c3ccnc(N4CC[C@@]5(CCOC5)C4)c3)[nH]c12` [compound 153, N-[7-methoxy-4-(oxan-4-yl)-1H-1,3-benzodiazol-2-yl]-2-[(5R)-2-oxa-7-azaspiro[4.4]nonan-7-yl]pyridine-4-carboxamide]: the IC50 on human A3 receptor was greater than 1000 nM; on human A1 receptor it was greater than 1000 nM; at A2B receptors it was greater than 1000 nM; at human A2A receptor it was less than 10 nM.

For the molecule `COc1ccc(C2CCOCC2)c2nc(NC(=O)c3ccnc(N4CC[C@]5(CCOC5)C4)c3)[nH]c12` [compound 154, N-[7-methoxy-4-(oxan-4-yl)-1H-1,3-benzodiazol-2-yl]-2-[(5S)-2-oxa-7-azaspiro[4.4]nonan-7-yl]pyridine-4-carboxamide], the IC50 on human A3 receptor is less than 1000 nM; on human A1 receptor, greater than 1000 nM; on A2B receptors, greater than 1000 nM; on human A2A receptor, less than 10 nM.

Regarding `COc1ccc(-c2cnn(C)c2)c2[nH]c(NC(=O)c3cnn(C)c3)nc12` [compound 160, N-[7-methoxy-4-(1-methyl-1H-pyrazol-4-yl)-1H-1,3-benzodiazol-2-yl]-1-methyl-1H-pyrazole-4-carboxamide], the half-maximal inhibitory concentration (IC50) on human A3 receptor was less than 100 nM; on human A1 receptor it was greater than 1000 nM; at A2B receptors, less than 100 nM; at human A2A receptor, less than 10 nM.

As for `COCCn1cc(C(=O)Nc2nc3c(-c4cnn(C)c4)ccc(OC)c3[nH]2)cn1` [compound 161, N-[7-methoxy-4-(1-methyl-1H-pyrazol-4-yl)-1H-1,3-benzodiazol-2-yl]-1-(2-methoxyethyl)-1H-pyrazole-4-carboxamide], the IC50 at human A3 receptor is less than 1000 nM; at human A1 receptor it was greater than 1000 nM; on A2B receptors, less than 1000 nM; at human A2A receptor it was less than 10 nM.

`COc1ccc(-c2cnn(C)c2)c2nc(NC(=O)c3ccc(C(=O)N(C)C)nc3)[nH]c12` [compound 162, N5-[7-methoxy-4-(1-methyl-1H-pyrazol-4-yl)-1H-1,3-benzodiazo1-2-yl]-N2,N2-dimethylpyridine-2,5-dicarboxamide]: the IC50 was greater than 1000 nM on human A3 receptor, greater than 1000 nM on human A1 receptor, less than 1000 nM on A2B receptors and less than 100 nM on human A2A receptor.

`COc1ccc(-c2cnn(C)c2)c2nc(NC(=O)c3cnc(C)s3)[nH]c12` [compound 165, N-[7-methoxy-4-(1-methyl-1H-pyrazol-4-yl)-1H-1,3-benzodiazol-2-yl]-2-methyl-1,3-thiazole-5-carboxamide]: the half-maximal inhibitory concentration (IC50) at human A3 receptor is less than 10 nM; at human A1 receptor, less than 1000 nM; on A2B receptors, less than 1000 nM; on human A2A receptor it was less than 10 nM.

For the molecule `COc1ccc(-c2cnn(C)c2)c2nc(NC(=O)c3ccc(CN4CCN(C)CC4)cc3)[nH]c12` [compound 168, N-[7-methoxy-4-(1-methyl-1H-pyrazol-4-yl)-1H-1,3-benzodiazol-2-yl]-4-[(4-methylpiperazin-1-yl)methyl]benzamide], the IC50 at human A3 receptor is less than 1000 nM; at human A1 receptor, greater than 1000 nM; on A2B receptors it was greater than 1000 nM; on human A2A receptor, less than 10 nM.

On to `COc1ccc(-c2cccc(F)c2)c2nc(NC(=O)N3CCC(C)(O)CC3)[nH]c12` [compound 217, N-[4-(3-fluorophenyl)-7-methoxy-1H-1,3-benzodiazol-2-yl]-4-hydroxy-4-methylpiperidine-1-carboxamide], for which the IC50 is greater than 1000 nM at human A3 receptor, less than 1000 nM on human A1 receptor, less than 100 nM at A2B receptors and less than 10 nM at human A2A receptor.

Consider `COc1ccc(-c2ccccc2F)c2nc(NC(=O)N3CCC(C)(O)CC3)[nH]c12` [compound 218, N-[4-(2-fluorophenyl)-7-methoxy-1H-1,3-benzodiazol-2-yl]-4-hydroxy-4-methylpiperidine-1-carboxamide], for which the IC50 at human A3 receptor was greater than 1000 nM; at human A1 receptor it was less than 1000 nM; on A2B receptors, less than 100 nM; at human A2A receptor, less than 10 nM.

In the case of `COc1ccc(-c2cnn(C)c2)c2nc(NC(=O)N3CC[C@H](F)C3)[nH]c12` [compound 221, (3S)-3-fluoro-N-[7-methoxy-4-(1-methyl-1H-pyrazol-4-yl)-1H-1,3-benzodiazol-2-yl]pyrrolidine-1-carboxamide], the IC50 on human A3 receptor is greater than 1000 nM; at human A1 receptor it was greater than 1000 nM; at A2B receptors it was less than 100 nM; on human A2A receptor, less than 10 nM.

As to `COc1ccc(C2CCOCC2)c2nc(NC(=O)c3cnn(C)c3)[nH]c12` [compound 224, N-[7-methoxy-4-(oxan-4-yl)-1H-1,3-benzodiazol-2-yl]-1-methyl-1H-pyrazole-4-carboxamide], the IC50 is less than 1000 nM on human A3 receptor, greater than 1000 nM at human A1 receptor, less than 100 nM on A2B receptors and less than 10 nM at human A2A receptor.

`COCCn1cc(C(=O)Nc2nc3c(C4CCOCC4)ccc(OC)c3[nH]2)cn1` [compound 225, N-[7-methoxy-4-(oxan-4-yl)-1H-1,3-benzodiazol-2-yl]-1-(2-methoxyethyl)-1H-pyrazole-4-carboxamide]: the half-inhibitory concentration (IC50) at human A3 receptor was greater than 1000 nM; at human A1 receptor, greater than 1000 nM; on A2B receptors, less than 100 nM; at human A2A receptor, less than 10 nM.

In the case of `COCCOc1cccc(-c2ccc(OC)c3nc(NC(=O)N4CCC(C)(O)CC4)[nH]c23)c1` [compound 236, 4-hydroxy-N-{4-methoxy-7-[3-(2-methoxyethoxy)phenyl]-1H-1,3-benzodiazol-2-yl}-4-methylpiperidine-1-carboxamide], the half-maximal inhibitory concentration (IC50) was less than 1000 nM on human A3 receptor, less than 1000 nM at human A1 receptor, less than 100 nM at A2B receptors and less than 10 nM on human A2A receptor.

In the case of `COc1ccc(-c2cnn(Cc3cccnc3)c2)c2[nH]c(NC(=O)N3CCC(C)(O)CC3)nc12` [compound 237, 4-hydroxy-N-(4-methoxy-7-{1-[(pyridin-3-yl)methyl]-1H-pyrazol-4-yl}-1H-1,3-benzodiazol-2-yl)-4-methylpiperidine-1-carboxamide], the half-maximal inhibitory concentration (IC50) on human A3 receptor is less than 1000 nM; on human A1 receptor, less than 1000 nM; at A2B receptors, less than 100 nM; at human A2A receptor, less than 100 nM.
